Measured values as given in patent US11034715B2, “Ectonucleotidase inhibitors and methods of use thereof” (Calithera Biosciences, Inc., priority 2016, dated 2021).

Columns and labels:
[1] = biological target: recombinant CD73 (Homo sapiens (Human), UniProt P21589); assay: Inhibition of the CD73 enzyme in vitro (soluble recombinant CD73, AMP, Malachite Green); assay type: biochemical; details: recombinant CD73 0.5 nM, AMP 50 μM, 30 minutes at room temperature
Protocol: The concentration of inorganic phosphate was determined using a phosphate standard curve.

[2] = biological target: endogenous, cell-bound CD73 on SK-MEL-28 cells (Homo sapiens (Human), UniProt P21589); assay: Inhibition of endogenous, cell-bound CD73 enzyme activity in SK-MEL-28 cells (AMP, Malachite Green); assay type: cell-based; details: 100 μM AMP, 30 minutes at room temperature
Protocol: The day before the experiment, 5000 cells were plated per well in a 96-well plate. Cells were washed twice with 200 μL reaction buffer (20 mM HEPES, pH 7.4, 125 mM NaCl, 1 mM KCl, 2 mM MgCl2, 10 mM glucose) to remove residual inorganic phosphate. After washing, assays contained serial dilutions of test compounds and 100 μM of AMP in a total volume of 200 μL reaction buffer, with a final DMSO concentration ≤0.5%. After 30 minutes at room temperature, supernatant was removed from the cells. […] The concentration of inorganic phosphate was determined using a phosphate standard curve to determine IC50.

Sequence of endogenous, cell-bound CD73 on SK-MEL-28 cells (P21589 27-574): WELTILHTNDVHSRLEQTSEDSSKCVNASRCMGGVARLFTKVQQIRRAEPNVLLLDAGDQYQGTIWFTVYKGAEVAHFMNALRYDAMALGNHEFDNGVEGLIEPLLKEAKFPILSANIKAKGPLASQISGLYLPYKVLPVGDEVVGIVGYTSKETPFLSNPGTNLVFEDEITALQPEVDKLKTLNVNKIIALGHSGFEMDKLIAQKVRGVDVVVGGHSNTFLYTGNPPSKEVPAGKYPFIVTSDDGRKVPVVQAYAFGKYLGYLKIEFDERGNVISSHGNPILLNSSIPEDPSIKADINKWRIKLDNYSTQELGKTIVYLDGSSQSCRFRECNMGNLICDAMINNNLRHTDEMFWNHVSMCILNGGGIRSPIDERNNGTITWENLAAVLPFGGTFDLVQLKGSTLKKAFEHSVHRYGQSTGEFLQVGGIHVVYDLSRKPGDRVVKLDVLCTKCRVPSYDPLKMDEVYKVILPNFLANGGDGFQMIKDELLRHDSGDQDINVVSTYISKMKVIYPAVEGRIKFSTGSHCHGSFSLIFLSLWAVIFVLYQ
Sequence of recombinant CD73 (P21589 27-547): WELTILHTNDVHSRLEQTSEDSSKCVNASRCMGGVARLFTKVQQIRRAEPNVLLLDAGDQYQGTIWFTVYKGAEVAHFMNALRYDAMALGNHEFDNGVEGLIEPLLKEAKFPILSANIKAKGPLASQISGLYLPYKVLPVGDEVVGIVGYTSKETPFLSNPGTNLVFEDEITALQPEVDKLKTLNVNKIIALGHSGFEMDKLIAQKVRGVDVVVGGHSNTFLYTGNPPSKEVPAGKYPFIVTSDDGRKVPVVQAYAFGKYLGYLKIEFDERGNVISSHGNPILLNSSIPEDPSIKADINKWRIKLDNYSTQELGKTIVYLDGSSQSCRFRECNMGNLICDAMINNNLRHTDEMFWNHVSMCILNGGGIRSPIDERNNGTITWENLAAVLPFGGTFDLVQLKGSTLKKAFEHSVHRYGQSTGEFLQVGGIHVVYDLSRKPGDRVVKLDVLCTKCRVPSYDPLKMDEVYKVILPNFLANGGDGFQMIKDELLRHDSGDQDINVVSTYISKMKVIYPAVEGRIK

- IC50 [1]: 258 nM
- IC50 [2]: 827 nM
Compound: Nc1nc(Cl)nc2c1ncn2[C@@H]1O[C@H](COC(Cc2ccc(Cl)c(Cl)c2)(C(=O)O)C(=O)O)[C@@H](O)[C@@H]1F [compound 128]
